Measured values reported in PubChem BioAssay (NCI).
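1) Cells in 96-well plates. 2) Compound, 48 h, 5 concentrations. 3) Linear interpolation between surrounding doses. 4) Unreached endpoint = highest concentration. At the GI50, growth is halved. At the TGI there is no net growth.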

How the values were obtained:
Assay in all cases: NCI-60 cell line screen, 48 h
[1] = tested on: HCT-15 colon
[2] = tested on: K-562 leukemia
[3] = tested on: LOX IMVI melanoma
[4] = tested on: MALME-3M melanoma
[5] = tested on: OVCAR-4 ovarian
[6] = tested on: RPMI-8226 leukemia
[7] = tested on: RXF 393 renal
[8] = tested on: SF-268 CNS
[9] = tested on: UACC-62 melanoma
[10] = tested on: DU-145 prostate

| SMILES | TGI [1] | TGI [2] | TGI [3] | TGI [4] | TGI [5] | TGI [6] | TGI [7] | TGI [8] | TGI [9] | GI50 [1] | GI50 [2] | GI50 [3] | GI50 [4] | GI50 [5] | GI50 [6] | GI50 [7] | GI50 [8] | GI50 [9] | GI50 [10] | TGI [10] |
| --- | --- | --- | --- | --- | --- | --- | --- | --- | --- | --- | --- | --- | --- | --- | --- | --- | --- | --- | --- | --- |
| COC(=O)C(=O)C(C#N)c1nc2ccccc2s1 (stereo not drawn) | > 100 µM | > 100 µM | > 100 µM | > 100 µM | > 100 µM | > 100 µM | > 100 µM | > 100 µM | > 100 µM | – | – | – | – | – | – | – | – | – | – | – |
| CN(C)CCC(N)(P(=O)([O-])[O-])P(=O)([O-])[O-].N.N.[Pt+2] | > 100 µM | > 100 µM | > 100 µM | > 100 µM | > 100 µM | > 100 µM | > 100 µM | > 100 µM | > 100 µM | > 100000 nM | > 100000 nM | > 100 µM | > 100000 nM | > 100000 nM | > 100 µM | > 100 µM | > 100 µM | > 100 µM | – | – |
| Cc1c(C(Cc2ccccc2N(C)C(=O)/C=C\C(=O)O)c2c[nH]c3ccccc23)c2ccccc2n1C (stereo not drawn) | 29.3 µM | 54.7 µM | 29.2 µM | 22.4 µM | 55.5 µM | – | 27.3 µM | 35.9 µM | 34.1 µM | – | – | – | – | – | – | – | – | – | – | – |
| Cc1cc(N(CCC#N)CCC#N)ccc1/C=C(\NC(=O)/C=C/c1ccccc1)C(=O)N=[N+]=[N-] | > 100 µM | > 100 µM | > 100 µM | > 100 µM | – | > 100 µM | 98.5 µM | > 100 µM | > 100 µM | – | – | – | – | – | – | – | – | – | – | – |
| CCN(CC)CC(=O)NC1c2ccccc2Oc2ccccc21 | > 100 µM | > 100 µM | > 100 µM | – | > 100 µM | > 100 µM | > 100 µM | > 100 µM | > 100 µM | – | – | – | – | – | – | – | – | – | – | – |
| CC(C)(CN1CCCCC1)C(=O)/C=C/c1ccccc1 | 67.2 µM | 24.9 µM | 41.3 µM | 30.3 µM | 73.9 µM | 38.3 µM | 24.7 µM | 36.8 µM | 53.2 µM | – | – | – | – | – | – | – | – | – | – | – |
| O=C(/C=C/c1ccccc1)NC1C=Nc2ccc([N+](=O)[O-])cc2NC1=O (stereo not drawn) | > 100 µM | > 100 µM | > 100 µM | > 100 µM | > 100 µM | – | > 100 µM | > 100 µM | > 100 µM | – | – | – | – | – | – | – | – | – | – | – |
| CNC(=O)Oc1cc(C(C)C)ccc1Sc1ccc(C(C)C)cc1OC(=O)NC | 16.1 µM | 14.5 µM | 27.6 µM | 20.5 µM | – | 7.48 µM | 9.34 µM | 19.4 µM | 16.5 µM | 1950 nM | 1270 nM | 6.09 µM | 4750 nM | – | 1.83 µM | 2.52 µM | 5.36 µM | 4.24 µM | 4.32 µM | 14.3 µM |
| O=C(O)c1ccc(N(/C=C/C(=O)C(F)(F)F)Cc2ccc(Cl)cc2)cc1 | 59.7 µM | – | 51.8 µM | – | – | > 100 µM | > 100 µM | > 100 µM | 66.3 µM | 21400 nM | – | 21.4 µM | – | – | 29.8 µM | 46.3 µM | > 100 µM | 24 µM | 22.4 µM | 62.1 µM |
| CC(C)(C)CC(C)(C)c1ccc(OCCO)cc1 | 19.3 µg/mL | > 75 µg/mL | 11.2 µg/mL | – | 21.5 µg/mL | 19.5 µg/mL | 18.1 µg/mL | 27.3 µg/mL | 15.9 µg/mL | 7.74 µg/mL | 0.887 µg/mL | 2.19 µg/mL | – | 1.5 µg/mL | 1.9 µg/mL | 8.58 µg/mL | 8.87 µg/mL | 3.51 µg/mL | 9.51 µg/mL | 20.6 µg/mL |
| C=CC1(C)CCC2C(=CCC3C2(C)CC(O)C(O)C3(C)COC2OC(CO)C(O)C(O)C2O)C1 (stereo not drawn) | > 100 µM | > 100 µM | > 100 µM | > 100 µM | > 100 µM | – | – | > 100 µM | > 100 µM | – | – | – | – | – | – | – | – | – | – | > 100 µM |
| CC(C)=CCc1cc2c(cc1O)C1=C(C(=O)C3=C(NCCS3(=O)=O)C1=O)C(C=C(C)C)O2 (stereo not drawn) | > 16.7 µM | > 16.7 µM | > 16.7 µM | 4.68 µM | > 16.7 µM | > 16.7 µM | > 16.7 µM | > 16.7 µM | 8.79 µM | 6210 nM | 5020 nM | 4.48 µM | 1680 nM | 3310 nM | 5.56 µM | 7.66 µM | 4.13 µM | 3.39 µM | – | – |
| CN(C)CC1CC/C(=C\c2ccc(Cl)c(Cl)c2)C1=O (stereo not drawn) | > 43.1 µM | > 27.1 µM | 18.4 µM | > 100 µM | 58.2 µM | 8.92 µM | > 61.8 µM | > 74.3 µM | 31.5 µM | – | – | – | – | – | – | – | – | – | – | – |
| CC(=O)N1C/C(=C\c2ccccc2)C(=O)/C(=C/c2ccccc2)C1 | 23.7 µM | 12.8 µM | 9.01 µM | 40 µM | 33.2 µM | 4.79 µM | 30.4 µM | 66.1 µM | 34.2 µM | – | – | – | – | – | – | – | – | – | – | – |
| O=C(CCc1n[nH]c(=S)o1)Nc1cc(Cl)ccc1Cl | 38.8 µM | 52.1 µM | – | > 100 µM | > 100 µM | 46.3 µM | – | > 100 µM | > 100 µM | – | – | – | – | – | – | – | – | – | – | – |
| NC(N)NCCCc1cn2c(n1)C1CCCN1C(=O)C2Cc1ccccc1 (stereo not drawn) | > 100 µM | > 100 µM | > 100 µM | > 100 µM | > 100 µM | > 100 µM | > 100 µM | > 100 µM | > 100 µM | – | – | – | – | – | – | – | – | – | – | – |
| COc1cc(/C=C2\CC3C4CC=C5CC(OC(C)=O)CC[C@]5(C)C4CC[C@]3(C)C2=O)ccc1OCCN1CCCC1 (stereo partly drawn) | 5.3 µM | 7.41 µM | 2.55 µM | – | > 19.6 µM | – | 11.6 µM | 26.7 µM | 3.85 µM | 1910 nM | 1080 nM | 0.248 µM | – | 2380 nM | – | 3.01 µM | 8.53 µM | 1.93 µM | 13.6 µM | 26.6 µM |
| CCN1CCN(CCC(=O)Nc2cccc(-n3cc(-c4ccncc4)c(-c4ccc(Cl)c(OC)c4)n3)c2)CC1 | 2.16 µM | – | 1.66 µM | 2.35 µM | 7.53 µM | – | 1.43 µM | 2.43 µM | 2.34 µM | 491 nM | – | 0.445 µM | 765 nM | 919 nM | – | 0.244 µM | 0.663 µM | 0.757 µM | 0.432 µM | 5.96 µM |
| N#CC(C(=O)CCCC(=O)Nc1ccccc1[N+](=O)[O-])c1c(Cl)cccc1Cl (stereo not drawn) | > 100 µM | > 100 µM | – | > 100 µM | > 100 µM | > 100 µM | > 100 µM | > 100 µM | > 100 µM | – | – | – | – | – | – | – | – | – | – | – |
